From patent US12226441B2, “Composition for inhibiting intestinal permeability, treating leaky gut related diseases and/or preventing leaky gut related diseases” (priority 2020, dated 2025)

Experiments:
[1] = test system: DSS-induced mice; test: dextran sulfate sodium salt (DSS) induced abnormal intestinal permeability animal model, serum FITC-dextran; type: in vivo, C57BL/6 male mice; conditions: positive control, 0.5% (v/v) DSS, 200 μM, 14 days, vs negative control
Experimental: The animals used in this experiment were 5-6 week old C57BL/6 male mice (purchased from the National Laboratory Animal Center).
The experiment was performed by an animal model of dextran sulfate sodium salt (DSS) induced abnormal intestinal permeability (Laroui H, Ingersoll S A, Liu H C, Baker M T, Ayyadurai S, et al. (2012) Dextran Sodium Sulfate (DSS) Induces Colitis in Mice by Forming Nano-Lipocomplexes with Medium-Chain-Length Fatty Acids in the Colon. PLOS ONE 7(3): e32084. doi:10.1371/journal.pone.0032084).
The mice were divided into an untreated group (Naive), a negative control group (vehicle: water), a positive control group (5-aminosalicylic acid (5-ASA)) and 3 experiments groups (Sample 15B (Ganoderma extract+red jujube extract+lotus seed extract+lotus seed extract (the weight ratio of the respective herbal raw materials used to obtain the respective extracts is 3:1:1:1))). The mice in the untreated group were not treated in any way. […]
The FITC-dextran content in mouse serum was measured with a multifunctional microplate spectrometer (Molecular Device, FlexStation® 3) as an indicator of intestinal permeability.

[2] = test system: OCLN; test: real-time quantitative PCR of tight junction gene expression in rhamnolipid-induced Caco-2 cells; type: cell-based, human; conditions: positive control, 50 μM (18.6 μg/mL), rhamnolipid-induced Caco-2, vs negative control
Excerpt: (§1) Total ribonucleic acid (total RNA) of cells was isolated by Total RNA Purification Kit (GeneMark, Taichung, Taiwan). Using Maxima First Strand cDNA Synthesis Kit (Thermo Fisher Scientific), according to the manufacturer's operating procedures, the obtained total ribonucleic acid subjected to a reverse transcription polymerase chain reaction to reverse-transcript messenger ribonucleic acid (mRNA) into cDNA. Next, the cDNA samples were subjected to a real-time quantitative polymerase chain reaction to determine the expression levels of CLDN3, OCLN and TJP1 mRNA.

[3] = test system: TJP1; test: as above; type: cell-based, human; conditions: positive control, 50 μM (18.6 μg/mL), rhamnolipid-induced Caco-2, vs negative control
Excerpt: as §1

[4] = test system: CLDN3; test: as above; type: cell-based, human; conditions: positive control, 50 μM (18.6 μg/mL), rhamnolipid-induced Caco-2, vs negative control
Excerpt: as §1

[5] = test system: mice with circadian disruption; test: circadian disruption (insomnia) animal model, brainwave sleep cycle parameters; type: in vivo, C57BL/6 male mice; conditions: positive control, light-dark cycle 7 hours:7 hours, 2.5 mg/kg orally, Day 4, vs negative control
Experimental: The animals used in this experiment were 8-week-old C57BL/6 male mice (purchased from the National Laboratory Animal Center).
The mice were subjected to a surgical operation to load electrodes on the skull to record brain waves. After a 7-day recovery period, the mice were reared for 2 weeks under a normal light-dark cycle of 12 hours: 12 hours, and the 24-hour brainwave changes of the mice were recorded as the basic point.
During the feeding, the mice in the negative control group were given the same amount of sterile water, mice in the positive control group were given diazepam (2.5 mg/kg orally), and mice in the experimental group were given 200 mg/kg Sample 15B.
The 24-hour brainwave changes of mice were recorded on Day 4 after the circadian disruption to analyze sleep cycle parameters of the time proportions (%) of the rapid eye movement (REM) and non-rapid eye movement (NREM), etc.

Structure (SMILES): Nc1ccc(O)c(C(=O)O)c1 [5-aminosalicylic acid]
- serum FITC-dextran concentration (intestinal permeability) [1]: reduce the serum FITC-dextran concentration

Structure (SMILES): COc1ccc2cc3[n+](cc2c1OC)CCc1cc2c(cc1-3)OCO2 [berberine chloride]
- expression level of OCLN gene [2]: significantly increase
- expression level of TJP1 gene [3]: significantly increase
- expression level of CLDN3 gene [4]: significantly increase

Structure (SMILES): CN1C(=O)CN=C(c2ccccc2)c2cc(Cl)ccc21 [diazepam]
- time proportion of the non-rapid eye movement (NREM) [5]: significantly increase the time proportion of the non-rapid eye movement
